{
  "source": "patent US9510589B2",
  "about": "“Use and agrochemical composition of carboxylic acid dibutylamides” (priority 2011, dated 2016)",
  "key": {"[1]": {"system": "enzymatically isolated cuticles of apple tree leaves", "assay": "Penetration test, kresoxim-methyl (Example 9)", "settings": "without N,N-dibutylcarboxamide, 0.3 g/l kresoxim-methyl in acetone/water, 20° C., 60% relative air humidity", "method": "(§1) In this test, the penetration of active ingredients though enzymatically isolated cuticles of apple tree leaves was measured. Leaves which had been cut off in the fully developed state from apple trees of the Golden Delicious variety were used.\n(§2) Thereafter, only the cuticles of the upper leaf sides which were free of stomata and hairs were used in the further procedure. They were repeatedly washed alternately with water and a buffer solution of pH 7. The clean cuticles obtained were finally applied to Teflon sheets and smoothed and dried with a gentle air stream.\n(§3) In the next step, the cuticular membranes thus obtained were placed into stainless steel diffusion cells (=transport chambers) for membrane transport studies. For this purpose, the cuticles were positioned using tweezers centrally onto the edges of the diffusion cells which had been smeared with silicone grease and sealed with a ring which had likewise been greased. The arrangement was selected such that the morphological outer side of the cuticles was directed outward, i.e. toward the air, while the original inner side faced the interior of the diffusion cell. […]\n(§4) To determine the penetration, 10 μl in each case of a spray liquor of the composition specified in the examples were applied to the outer side of a cuticle. […] The active ingredient penetration was measured by means of HPLC or radiolabeled active ingredient."}, "[2]": {"system": "enzymatically isolated cuticles of apple tree leaves", "assay": "Penetration test, bromoxynil, dimethyl vs dibutyl amides (Example 6)", "type": "in vitro ADME, apple trees of the Golden Delicious variety", "settings": "no N,N-dialkylcarboxamide, 0.5 g/l castor oil ethoxylate emulsifier only, 1.5 g/l bromoxynil in acetone/water, 20° C., 60% relative air humidity", "method": "as §1, §2, §3, §4"}, "[3]": {"system": "enzymatically isolated cuticles of apple tree leaves", "assay": "Penetration test, spirotetramat in acetone/water (Example 7)", "type": "in vitro ADME, apple trees of the Golden Delicious variety", "settings": "without N,N-dibutylcarboxamide, 0.3 g/l spirotetramat in acetone/water, 20° C., 60% relative air humidity", "method": "as §1, §2, §3, §4"}, "[4]": {"system": "enzymatically isolated cuticles of apple tree leaves", "assay": "Penetration test, prothioconazole in acetone/water (Example 15)", "type": "in vitro ADME, apple trees of the Golden Delicious variety", "settings": "without N,N-dibutylcarboxamide, 0.3 g/l prothioconazole in acetone/water, 25° C., 60% relative air humidity", "method": "as §1, §2, §3, §4"}, "[5]": {"system": "enzymatically isolated cuticles of apple tree leaves", "assay": "Penetration test, prothioconazole with dimethyl amide plus dibutyl amides (Example 17)", "type": "in vitro ADME, apple trees of the Golden Delicious variety", "settings": "no N,N-dibutylcarboxamide, 0.8 g/l prothioconazole in acetone/water with 1.5 g/l N,N-dimethyl-C8-C10-carboxamide and 0.4 g/l tristyrylphenol ethoxylate, n = 21, 20° C., 60% relative air humidity", "method": "as §1, §2, §3, §4"}, "[6]": {"system": "enzymatically isolated cuticles of apple tree leaves", "assay": "Penetration test, epoxiconazole (Example 11)", "type": "in vitro ADME, apple trees of the Golden Delicious variety", "settings": "without N,N-dibutylcarboxamide, 0.3 g/l epoxiconazole in acetone/water, 20° C., 60% relative air humidity", "method": "as §1, §2, §3, §4"}, "[7]": {"system": "enzymatically isolated cuticles of apple tree leaves", "assay": "Penetration test, propiconazole (Example 12)", "type": "in vitro ADME, apple trees of the Golden Delicious variety", "settings": "without N,N-dibutylcarboxamide, 0.3 g/l propiconazole in acetone/water, 20° C., 60% relative air humidity", "method": "as §1, §2, §3, §4"}, "[8]": {"system": "isolated apple leaf cuticles", "assay": "Penetration test, fluopyram EC (Example 21)", "type": "in vitro ADME, apple trees of the Golden Delicious variety", "settings": "no carboxamide, 0.5 g/l fluopyram, 0.5 g/l emulsifier, 2% by weight solvent, 25° C., 60% relative air humidity", "procedure": "The active ingredient fluopyram was made up as an EC formulation in the laboratory: fluopyram is dissolved in a preliminary mixture of solvent and emulsifier (dimethylacetamide+Tanemul PS16) and diluted with water to give the ready-to-use test solution. The test solution contains 0.5 g/l active ingredient, 0.5 g/l emulsifier and 2% by weight of solvent."}, "[9]": {"system": "enzymatically isolated cuticles of apple tree leaves", "assay": "Penetration test, isopyrazam (Example 13)", "type": "in vitro ADME, apple trees of the Golden Delicious variety", "settings": "without N,N-dibutylcarboxamide, 0.3 g/l isopyrazam in acetone/water, 20° C., 60% relative air humidity", "method": "as §1, §2, §3, §4"}, "[10]": {"system": "enzymatically isolated cuticles of apple tree leaves", "assay": "Penetration test, azoxystrobin (Example 10)", "type": "in vitro ADME, apple trees of the Golden Delicious variety", "settings": "without N,N-dibutylcarboxamide, 0.3 g/l azoxystrobin in acetone/water, 20° C., 60% relative air humidity", "method": "as §1, §2, §3, §4"}},
  "data": [
    {"smiles": "CO/N=C(/C(=O)OC)c1ccccc1COc1ccccc1C", "note": "[kresoxim-methyl]", "values": [
      {"measurement": "Mean penetration of kresoxim-methyl in % 3 h", "setting": "[1]; 3 h", "value": 1, "unit": "%"},
      {"measurement": "Mean penetration of kresoxim-methyl in % 24 h", "setting": "[1]; 24 h", "value": 3, "unit": "%"}
    ]},
    {"smiles": "N#Cc1cc(Br)c(O)c(Br)c1", "note": "[bromoxynil]", "values": [
      {"measurement": "Mean penetration of bromoxynil in % 5 h", "setting": "[2]; 5 h", "value": 4, "unit": "%"},
      {"measurement": "Mean penetration of bromoxynil in % 24 h", "setting": "[2]; 24 h", "value": 20, "unit": "%"}
    ]},
    {"smiles": "CCOC(=O)OC1=C(c2cc(C)ccc2C)C(=O)N[C@]12CC[C@@H](OC)CC2", "note": "[spirotetramat]", "values": [
      {"measurement": "Mean penetration of spirotetramat in % 3 h", "setting": "[3]; 3 h", "value": 0, "unit": "%"},
      {"measurement": "Mean penetration of spirotetramat in % 24 h", "setting": "[3]; 24 h", "value": 1, "unit": "%"}
    ]},
    {"smiles": "OC(Cc1ccccc1Cl)(Cn1nc[nH]c1=S)C1(Cl)CC1", "note": "(centres unmarked) [prothioconazole]", "values": [
      {"measurement": "Mean penetration of prothioconazole in % 3 h", "setting": "[4]; 3 h", "value": 1, "unit": "%"},
      {"measurement": "Mean penetration of prothioconazole in % 24 h", "setting": "[4]; 24 h", "value": 2, "unit": "%"},
      {"measurement": "Mean penetration of prothioconazole in % 3 h", "setting": "[5]; 3 h", "value": "1.3 (n = 21) %"},
      {"measurement": "Mean penetration of prothioconazole in % 24 h", "setting": "[5]; 24 h", "value": "3.7 (n = 21) %"}
    ]},
    {"smiles": "Fc1ccc([C@]2(Cn3cncn3)O[C@H]2c2ccccc2Cl)cc1", "note": "(racemic) [epoxiconazole]", "values": [
      {"measurement": "Mean penetration of epoxiconazole in % 3 h", "setting": "[6]; 3 h", "value": 1, "unit": "%"},
      {"measurement": "Mean penetration of epoxiconazole in % 24 h", "setting": "[6]; 24 h", "value": 2, "unit": "%"}
    ]},
    {"smiles": "CCCC1COC(Cn2cncn2)(c2ccc(Cl)cc2Cl)O1", "note": "(centres unmarked) [propiconazole]", "values": [
      {"measurement": "Mean penetration of propiconazole in % 3 h", "setting": "[7]; 3 h", "value": 4, "unit": "%"},
      {"measurement": "Mean penetration of propiconazole in % 24 h", "setting": "[7]; 24 h", "value": 44, "unit": "%"}
    ]},
    {"smiles": "O=C(NCCc1ncc(C(F)(F)F)cc1Cl)c1ccccc1C(F)(F)F", "note": "[fluopyram]", "values": [
      {"measurement": "Mean penetration of fluopyram in % 6 h", "setting": "[8]; 6 h", "value": 20, "unit": "%"},
      {"measurement": "Mean penetration of fluopyram in % 24 h", "setting": "[8]; 24 h", "value": 53, "unit": "%"}
    ]},
    {"smiles": "CC(C)C1C2CCC1c1c(NC(=O)c3cn(C)nc3C(F)F)cccc12", "note": "(centres unmarked) [isopyrazam]", "values": [
      {"measurement": "Mean penetration of isopyrazam in % 3 h", "setting": "[9]; 3 h", "value": 1, "unit": "%"},
      {"measurement": "Mean penetration of isopyrazam in % 24 h", "setting": "[9]; 24 h", "value": 2, "unit": "%"}
    ]},
    {"smiles": "CO/C=C(/C(=O)OC)c1ccccc1Oc1cc(Oc2ccccc2C#N)ncn1", "note": "[azoxystrobin]", "values": [
      {"measurement": "Mean penetration of azoxystrobin in % 3 h", "setting": "[10]; 3 h", "value": "<1", "unit": "%"},
      {"measurement": "Mean penetration of azoxystrobin in % 24 h", "setting": "[10]; 24 h", "value": 1, "unit": "%"}
    ]}
  ]
}
